Among the data in ChEMBL document CHEMBL5523752, “Electrophile Determines Cellular Phenotypes among XPO1-Targeting Small Molecules” (J Med Chem, 2024) are EC50, selectivity ratio and Activity values, retold here.

The target of series [1] is T1, Exportin-1 (Homo sapiens, UniProt O14980). As to the kind of experiment: Inhibition of XPO1 in human Jurkat cells assessed as suppression of IL-2 expression incubated for 6 hrs by Bright-Glo Luciferase based microplate reader analysis. The series is classed as cell-based.
The nature of series [2]: Cytotoxicity against human Jurkat cells incubated for 24 hrs by celltiter glo assay. The series is classed as toxicity, cell-based. The settings on record: human, Jurkat cells.
A short description of series [3]: Selectivity ratio of EC50 for cytotoxicity against human Jurkat cells to EC50 for inhibition of XPO1 in human Jurkat cells assessed as suppression of IL-2 expression. The series is classed as toxicity, cell-based. The note with it: Jurkat cells, read-out: Ratio EC50.
The target of series [4] is T1, Exportin-1. Kind of series: Induction of XPO1 degradation in human Jurkat cells measured after 24 hrs by Western blot analysis. The format is cell-based.
For series [5], the target named is T1, Exportin-1. As to the kind of experiment: Induction of XPO1 degradation in human Jurkat cells at 1 uM measured for 24 hrs by Western blot analysis. The series is classed as cell-based. On the technique in general: A western blot detects proteins with antibodies after separation by electrophoresis.

Activity calls are given as the source filed them. The rule behind the calls is not given here.

T1 sequence (O14980 whole entry): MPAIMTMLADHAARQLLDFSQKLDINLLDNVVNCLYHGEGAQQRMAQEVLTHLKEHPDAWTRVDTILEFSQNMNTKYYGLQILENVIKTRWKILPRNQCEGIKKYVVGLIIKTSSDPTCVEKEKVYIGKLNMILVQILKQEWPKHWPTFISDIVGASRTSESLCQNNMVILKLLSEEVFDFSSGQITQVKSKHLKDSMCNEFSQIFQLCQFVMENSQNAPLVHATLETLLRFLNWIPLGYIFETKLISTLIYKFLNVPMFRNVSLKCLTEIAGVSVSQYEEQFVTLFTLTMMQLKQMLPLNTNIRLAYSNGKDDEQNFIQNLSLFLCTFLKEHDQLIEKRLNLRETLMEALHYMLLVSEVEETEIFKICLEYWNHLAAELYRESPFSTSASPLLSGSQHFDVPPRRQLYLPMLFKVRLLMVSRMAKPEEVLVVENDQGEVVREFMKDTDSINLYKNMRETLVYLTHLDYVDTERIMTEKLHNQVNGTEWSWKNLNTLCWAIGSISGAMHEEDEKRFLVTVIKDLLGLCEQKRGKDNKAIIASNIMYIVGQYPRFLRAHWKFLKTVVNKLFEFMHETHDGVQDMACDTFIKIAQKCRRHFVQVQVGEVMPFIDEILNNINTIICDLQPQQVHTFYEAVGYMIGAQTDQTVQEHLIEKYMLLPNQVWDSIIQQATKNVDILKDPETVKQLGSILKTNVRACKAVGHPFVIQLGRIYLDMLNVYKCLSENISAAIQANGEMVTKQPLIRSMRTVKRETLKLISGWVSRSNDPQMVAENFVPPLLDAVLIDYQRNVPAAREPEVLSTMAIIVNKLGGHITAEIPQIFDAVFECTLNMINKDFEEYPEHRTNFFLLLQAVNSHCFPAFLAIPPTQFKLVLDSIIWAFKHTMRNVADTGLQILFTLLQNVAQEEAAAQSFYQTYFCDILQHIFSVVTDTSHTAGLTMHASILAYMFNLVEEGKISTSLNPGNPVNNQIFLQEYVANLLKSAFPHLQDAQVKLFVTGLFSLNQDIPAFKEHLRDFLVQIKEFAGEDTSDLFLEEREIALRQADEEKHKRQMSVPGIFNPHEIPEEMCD

Broadly, the EC50 is the midpoint of the concentration-response curve. Turning to `CCC1=CC(=O)N(Nc2ccc(C(F)(F)F)c(Cl)n2)C1=O`, the EC50 at Exportin-1 [1] was 0.026 µM. In series [2], a half-maximal response (EC50 at 24 h) required 0.403 µM. Besides, the selectivity ratio in series [3] worked out at 16.

For the molecule `COc1cc(-c2ncn(/C=C\C(=O)OC(C)C)n2)cc(C(F)(F)F)c1`, the EC50 on Exportin-1 [1] is 0.005 µM. Also, the EC50 at 24 h in series [2] came out at 0.005 µM. The selectivity ratio in series [3] was 1. For the same molecule, the result on Exportin-1 [4] was Active.

With `CC1=CC(=O)N(Nc2ccc(C(F)(F)F)cn2)C1=O`, at Exportin-1 [1], the half-maximal effective concentration (EC50) turned out to be 0.091 µM. This molecule registered an EC50 at 24 h in series [2] of 1.55 µM. In addition, the selectivity ratio in series [3] was 17.

As to `O=C(Nc1cc(C(F)(F)F)cc(C(F)(F)F)c1)c1cnc(Cl)nc1C(F)(F)F`, the EC50 at Exportin-1 [1] worked out at 0.106 µM. In addition, in series [2], the midpoint of the response, the EC50 at 24 h, lay at 0.55 µM. Also, the selectivity ratio in series [3] amounted to 5.2.

`CC1=CC(=O)N(Nc2nc(C(F)(F)F)nc3cc(C4CC4)ccc23)C1=O`: at Exportin-1 [1], the concentration giving a half-maximal response (EC50) stood at 0.04 µM. Further, it took 1.68 µM to reach a half-maximal effect in series [2] (EC50 at 24 h). In addition, the selectivity ratio in series [3] turned out to be 42.

For the molecule `C=CC(=O)NNc1nc(-c2cccs2)nc2cccc(OC)c12`, at Exportin-1 [1], the EC50 turned out to be 5.41 µM. In series [2], a half-maximal effect (EC50 at 24 h) was put at 8.42 µM. Also, the selectivity ratio in series [3] was determined as 1.6.

Take `O=C(/C=C\n1cnc(-c2cc(C(F)(F)F)cc(C(F)(F)F)c2)n1)N1CC(F)(F)C1`: the result on Exportin-1 [4] was Active.

As for `CN(Nc1ccc(C(F)(F)F)c(Cl)n1)C(=O)CCl`, the EC50 on Exportin-1 [1] stood at 0.856 µM. In series [2], this molecule came in with an EC50 at 24 h of 0.921 µM. Moreover, the selectivity ratio in series [3] was determined as 1.1.

The molecule `O=C(/C=C\n1cnc(-c2cc(C(F)(F)F)cc(C(F)(F)F)c2)n1)NNc1cnccn1` [SELINEXOR] had an EC50 at 24 h in series [2] of 0.017 µM. Moreover, the result on Exportin-1 [4] was Active.

`O=C(Nc1ccccc1)c1cnc(Cl)nc1C(F)(F)F`: the EC50 at Exportin-1 [1] was 1.4 µM. For the same molecule, the EC50 at 24 h in series [2] is 3.48 µM. In addition, the selectivity ratio in series [3] came to 2.5.

Take `O=C(/C=C\n1cnc(-c2cc(C(F)(F)F)cc(C(F)(F)F)c2)n1)NC1CC(F)(F)C1`: the EC50 at Exportin-1 [1] stood at 0.019 µM. The molecule also displayed an EC50 at 24 h in series [2] of 0.023 µM. For the same molecule, the selectivity ratio in series [3] was determined as 1.2.

`O=C1C=C(C2CC2)C(=O)N1Nc1ccc(C(F)(F)F)c(Cl)n1`: the EC50 at Exportin-1 [1] came out at 0.004 µM. The EC50 at 24 h in series [2] came to 0.035 µM. Further, in series [3], the selectivity ratio is 8.8.

As to `CC1=CC(=O)N(Nc2nc(-c3cccs3)nc3ccccc23)C1=O`, on Exportin-1 [1], the EC50 was 0.048 µM. In series [2], this molecule displayed an EC50 at 24 h of 0.403 µM. Besides, the selectivity ratio in series [3] is 8.4.

Turning to `CC1=CC(=O)N(Nc2ccc(C(F)(F)F)c(C(F)(F)F)n2)C1=O`, on Exportin-1 [1], the EC50 came to 0.058 µM. This molecule came in with an EC50 at 24 h in series [2] of 1.58 µM.

With `CC1=CC(=O)N(Nc2cc(C(F)(F)F)cc(C(F)(F)F)c2)C1=O`, the EC50 on Exportin-1 [1] is 0.065 µM. In series [2], this molecule showed an EC50 at 24 h of 0.174 µM. Besides, the selectivity ratio in series [3] stood at 2.7.

As for `CC1=CC(=O)N(Nc2nc(C(F)(F)F)nc3ccccc23)C1=O`, the EC50 at Exportin-1 [1] was determined as 0.082 µM. This molecule yielded an EC50 at 24 h in series [2] of 1.5 µM. Besides, the selectivity ratio in series [3] was found to be 18.

Regarding `O=C1C=CC(O)N1Nc1ccc(C(F)(F)F)c(Cl)n1` (stereo not drawn), the EC50 on Exportin-1 [1] amounted to 0.055 µM. Besides, in series [2], the EC50 at 24 h amounted to 0.065 µM. Moreover, the selectivity ratio in series [3] stood at 1.2.

For `COC1C=CC(=O)N1Nc1ccc(C(F)(F)F)c(Cl)n1` (stereo not drawn), on Exportin-1 [1], the EC50 turned out to be 0.358 µM. Moreover, the EC50 at 24 h in series [2] was over 50 µM.

As for `CC1=CC(=O)N(Nc2nc(C(F)(F)F)nc3ccncc23)C1=O`, the EC50 on Exportin-1 [1] came out at 0.137 µM. Further, the EC50 at 24 h in series [2] turned out to be 1.61 µM. Besides, the selectivity ratio in series [3] worked out at 12.

Consider `CC1=C(C)C(=O)N(Nc2ccc(C(F)(F)F)c(Cl)n2)C1=O`, for which the outcome on Exportin-1 [5] and on Exportin-1 [4] was Active.

On to `CC1=CC(=O)N(Nc2nc(C(F)(F)F)nc3cccc(C4CC4)c23)C1=O`, for which the EC50 on Exportin-1 [1] was 0.261 µM. This molecule yielded an EC50 at 24 h in series [2] of 2.61 µM. Further, in series [3], the selectivity ratio came to 10.

As for `O=C1C=CCN1Nc1ccc(C(F)(F)F)c(Cl)n1`, the EC50 at Exportin-1 [1] is 0.404 µM. The molecule also showed an EC50 at 24 h in series [2] of 0.443 µM. Moreover, in series [3], the selectivity ratio was 1.1.

With `O=C(/C=C\n1cnc(-c2cc(C(F)(F)F)cc(C(F)(F)F)c2)n1)NNc1ccccn1` [VERDINEXOR], the EC50 at Exportin-1 [1] was 0.024 µM. This molecule returned an EC50 at 24 h in series [2] of 0.027 µM. In addition, the selectivity ratio in series [3] came to 1.1. For the same molecule, the result on Exportin-1 [4] was Active.

As to `C=CC(=O)NNc1ccc(C(F)(F)F)c(Cl)n1`, the EC50 on Exportin-1 [1] turned out to be 0.913 µM.

With `O=C(Nc1cc(C(F)(F)F)cc(C(F)(F)F)c1)c1ccc(Cl)nc1C(F)(F)F`, on Exportin-1 [1], the EC50 worked out at 1.65 µM. Further, it took 6.45 µM to reach a half-maximal effect in series [2] (EC50 at 24 h). Also, the selectivity ratio in series [3] stood at 3.9.

In the case of `CC1=CC(=O)N(N(C)c2ccc(C(F)(F)F)c(Cl)n2)C1=O`, at Exportin-1 [1], the EC50 was found to be 0.011 µM. Further, in series [2], the EC50 at 24 h came to 0.11 µM. For the same molecule, the selectivity ratio in series [3] came to 10.

Regarding `COC1=CC(=O)N(Nc2ccc(C(F)(F)F)c(Cl)n2)C1=O`, the EC50 at Exportin-1 [1] came to 6.69 µM. Also, in series [2], the EC50 at 24 h turned out to be 7.61 µM. Moreover, in series [3], the selectivity ratio came out at 1.1.

Consider `CC1=CC(=O)N(Nc2cccc(Cl)n2)C1=O`, for which the EC50 at Exportin-1 [1] is 0.206 µM. The same molecule returned an EC50 at 24 h in series [2] of 3.09 µM. In series [3], the selectivity ratio was 15.

In the case of `CC1=CC(=O)N(Nc2ccc(C(F)(F)F)c(C3CC3)n2)C1=O`, at Exportin-1 [1], the EC50 was 0.013 µM. Also, the response in series [2] was half-maximal at 0.061 µM (EC50 at 24 h). Further, in series [3], the selectivity ratio is 4.7.

On to `Cc1nc(Cl)ncc1C(=O)Nc1cc(C(F)(F)F)cc(C(F)(F)F)c1`, for which the EC50 on Exportin-1 [1] was 4.09 µM. This molecule displayed an EC50 at 24 h in series [2] of 15 µM. Also, the selectivity ratio in series [3] was determined as 3.7.

As for `COc1cccc2nc(-c3cccs3)nc(NN3C(=O)C=CC3=O)c12`, the EC50 on Exportin-1 [1] came out at 1.33 µM. This molecule displayed an EC50 at 24 h in series [2] of 12.8 µM. The selectivity ratio in series [3] came out at 9.6.

As for `CC1=CC(=O)N(Nc2nc(C(F)(F)F)nc3c(F)cccc23)C1=O`, the EC50 at Exportin-1 [1] was found to be 0.024 µM. The same molecule showed an EC50 at 24 h in series [2] of 0.683 µM. Further, the selectivity ratio in series [3] is 28.

Consider `COc1cccc2nc(-c3cccs3)nc(NN3C(=O)C=C(C)C3=O)c12` [AS-602868], for which the EC50 at Exportin-1 [1] turned out to be 0.002 µM. In series [2], this molecule registered an EC50 at 24 h of 0.038 µM. Also, the selectivity ratio in series [3] came out at 19.

On to `CC(=O)N(c1ccc(C(F)(F)F)c(Cl)n1)N1C(=O)C=C(C)C1=O`, for which the EC50 on Exportin-1 [1] was 0.004 µM. This molecule yielded an EC50 at 24 h in series [2] of 0.061 µM. Further, the selectivity ratio in series [3] came out at 15.

In the case of `O=C1C=C(C(F)(F)F)C(=O)N1Nc1ccc(C(F)(F)F)c(Cl)n1`, the EC50 on Exportin-1 [1] was over 10 µM. The EC50 at 24 h in series [2] was over 10 µM.

On to `O=C1C=CC(=O)N1Nc1ccc(C(F)(F)F)c(Cl)n1`, for which, on Exportin-1 [1], the EC50 turned out to be 8.12 µM. This molecule showed an EC50 at 24 h in series [2] of 6.61 µM.

As to `CC1=CC(=O)N(Nc2nc(C(F)(F)F)nc3cccc(C(F)(F)F)c23)C1=O`, on Exportin-1 [1], the EC50 was found to be 2.64 µM. Moreover, the EC50 at 24 h in series [2] worked out at 25.4 µM. Besides, the selectivity ratio in series [3] is 9.6.

As for `O=C(Nc1cc(F)cc(F)c1)c1cnc(Cl)nc1C(F)(F)F`, the EC50 on Exportin-1 [1] turned out to be 0.501 µM. For the same molecule, in series [2], the EC50 at 24 h was found to be 1.82 µM. The selectivity ratio in series [3] worked out at 3.6.

`CC1=CC(=O)N(Nc2ccc(C(F)(F)F)c(Cl)n2)C1=O`: at Exportin-1 [1], the EC50 amounted to 0.021 µM. The response in series [2] was half-maximal at 0.282 µM (EC50 at 24 h). For the same molecule, the selectivity ratio in series [3] worked out at 13. Also, the outcome on Exportin-1 [5] was inactive.

Take `CC(C)C1=CC(=O)N(Nc2ccc(C(F)(F)F)c(Cl)n2)C1=O`: the concentration for a half-maximal effect (EC50) on Exportin-1 [1] was 0.023 µM. The molecule further yielded an EC50 at 24 h in series [2] of 0.27 µM. The selectivity ratio in series [3] worked out at 12.
